According to patent publication US7829533B2, “Cyclosporin analog formulations” (Isotechnika Inc., priority 2001, dated 2010):

Test: Toxicokinetic study in the rabbit model (serum creatinine, hematology, organ examination)
Protocol: On Days 1 and 7, blood samples were collected prior to drug administration and at 0.5, 1, 2, 4, 8, 12, 18, and 24 hours post-dose to generate a pharmacokinetic profile. Other evaluated parameters included clinical observations, body weight, food consumption, hematology, clinical chemistry, gross pathology, and histopathological examination of selected tissues/organs.

C=C/C=C/C[C@@H](C)[C@@H](O)[C@H]1C(=O)N[C@@H](CC)C(=O)N(C)CC(=O)N(C)[C@@H](CC(C)C)C(=O)N[C@@H](C(C)C)C(=O)N(C)[C@@H](CC(C)C)C(=O)N[C@@H](C)C(=O)N[C@H](C)C(=O)N(C)[C@@H](CC(C)C)C(=O)N(C)[C@@H](CC(C)C)C(=O)N(C)[C@@H](C(C)C)C(=O)N1C [ISATX247]
Examination of organs: spermatogenesis (male rabbits, 15 mg/kg): decrease in spermatogenesis | Examination of organs (rabbits, 5 mg/kg): no significant abnormalities | Examination of organs (rabbits, 10 mg/kg): no significant abnormalities | Interstitial fibrosis in the kidneys (rabbits, 10 mg/kg cyclosporine A, 5 or 10 mg/kg ISATx247): no evidence of interstitial fibrosis | Increase in serum creatinine levels (rabbits, 15 mg/kg/day): did not result in any significant increase | Changes in hematological parameters (rabbits, 30-day study): No significant changes
